From article PMC11711049 (Cancer Science, 2024)

Tested on: patients with advanced gastric cancer and cholangiocarcinoma
Experiment: Safety assessments
Type: in vivo, human
Conditions: 140 mg once daily

CNC(=O)n1ccc2cc(Oc3ccnc(NC(=O)c4ccc(C5CCN(CCO)CC5)cc4)c3)c(OCCOC)cc21 [Tasurgratinib]
SAEs considered related to the study drug: none and No treatment‐related SAEs
dose reductions attributed to AST increased: 1 n
dose reductions attributed to PPE syndrome: 2 n
dose reductions attributed to decreased appetite: 1 n
dose reductions attributed to paronychia: 2 n
dose reductions attributed to stomatitis: 1 n
drug‐related deaths: no drug‐related deaths
severity of all hyperphosphatemia events: grade 1 or 2
ALT increased, TEAEs All grades (N = 16): 3 (18.8) n (%)
ALT increased, TEAEs Grade ≥3 (N = 16): 1 (6.3) n (%)
ALT increased, TRAEs All grades (N = 16): 2 (12.5) n (%)
ALT increased, TRAEs Grade ≥3 (N = 16): 0 (0.0) n (%)
AST increased, TEAEs All grades (N = 16): 4 (25.0) n (%)
AST increased, TEAEs Grade ≥3 (N = 16): 2 (12.5) n (%)
AST increased, TRAEs All grades (N = 16): 3 (18.8) n (%)
AST increased, TRAEs Grade ≥3 (N = 16): 1 (6.3) n (%)
Abdominal distension, TEAEs All grades (N = 16): 4 (25.0) n (%)
Abdominal distension, TEAEs Grade ≥3 (N = 16): 1 (6.3) n (%)
Abdominal distension, TRAEs All grades (N = 16): 0 (0.0) n (%)
Abdominal distension, TRAEs Grade ≥3 (N = 16): 0 (0.0) n (%)
Abdominal pain, TEAEs All grades (N = 16): 2 (12.5) n (%)
Abdominal pain, TEAEs Grade ≥3 (N = 16): 0 (0.0) n (%)
Abdominal pain, TRAEs All grades (N = 16): 0 (0.0) n (%)
Abdominal pain, TRAEs Grade ≥3 (N = 16): 0 (0.0) n (%)
All AEs, TEAEs All grades (N = 16): 16 (100.0) n (%)
All AEs, TEAEs Grade ≥3 (N = 16): 11 (68.8) n (%)
All AEs, TRAEs All grades (N = 16): 16 (100.0) n (%)
All AEs, TRAEs Grade ≥3 (N = 16): 2 (12.5) n (%)
Anemia, TEAEs All grades (N = 16): 4 (25.0) n (%)
Anemia, TEAEs Grade ≥3 (N = 16): 2 (12.5) n (%)
Anemia, TRAEs All grades (N = 16): 1 (6.3) n (%)
Anemia, TRAEs Grade ≥3 (N = 16): 0 (0.0) n (%)
Blood alkaline phosphatase increased, TEAEs All grades (N = 16): 3 (18.8) n (%)
Blood alkaline phosphatase increased, TEAEs Grade ≥3 (N = 16): 2 (12.5) n (%)
Blood alkaline phosphatase increased, TRAEs All grades (N = 16): 1 (6.3) n (%)
Blood alkaline phosphatase increased, TRAEs Grade ≥3 (N = 16): 0 (0.0) n (%)
Blood creatinine increased, TEAEs All grades (N = 16): 5 (31.3) n (%)
Blood creatinine increased, TEAEs Grade ≥3 (N = 16): 0 (0.0) n (%)
Blood creatinine increased, TRAEs All grades (N = 16): 3 (18.8) n (%)
Blood creatinine increased, TRAEs Grade ≥3 (N = 16): 0 (0.0) n (%)
Cancer pain, TEAEs All grades (N = 16): 2 (12.5) n (%)
Cancer pain, TEAEs Grade ≥3 (N = 16): 0 (0.0) n (%)
Cancer pain, TRAEs All grades (N = 16): 0 (0.0) n (%)
Cancer pain, TRAEs Grade ≥3 (N = 16): 0 (0.0) n (%)
Constipation, TEAEs All grades (N = 16): 3 (18.8) n (%)
Constipation, TEAEs Grade ≥3 (N = 16): 0 (0.0) n (%)
Constipation, TRAEs All grades (N = 16): 1 (6.3) n (%)
Constipation, TRAEs Grade ≥3 (N = 16): 0 (0.0) n (%)
Decreased appetite, TEAEs All grades (N = 16): 7 (43.8) n (%)
Decreased appetite, TEAEs Grade ≥3 (N = 16): 2 (12.5) n (%)
Decreased appetite, TRAEs All grades (N = 16): 2 (12.5) n (%)
Decreased appetite, TRAEs Grade ≥3 (N = 16): 0 (0.0) n (%)
Diarrhea, TEAEs All grades (N = 16): 6 (37.5) n (%)
Diarrhea, TEAEs Grade ≥3 (N = 16): 1 (6.3) n (%)
Diarrhea, TRAEs All grades (N = 16): 4 (25.0) n (%)
Diarrhea, TRAEs Grade ≥3 (N = 16): 0 (0.0) n (%)
Dry eye, TEAEs All grades (N = 16): 2 (12.5) n (%)
Dry eye, TEAEs Grade ≥3 (N = 16): 0 (0.0) n (%)
Dry eye, TRAEs All grades (N = 16): 1 (6.3) n (%)
Dry eye, TRAEs Grade ≥3 (N = 16): 0 (0.0) n (%)
Dry mouth, TEAEs All grades (N = 16): 3 (18.8) n (%)
Dry mouth, TEAEs Grade ≥3 (N = 16): 0 (0.0) n (%)
Dry mouth, TRAEs All grades (N = 16): 3 (18.8) n (%)
Dry mouth, TRAEs Grade ≥3 (N = 16): 0 (0.0) n (%)
Dry skin, TEAEs All grades (N = 16): 3 (18.8) n (%)
Dry skin, TEAEs Grade ≥3 (N = 16): 0 (0.0) n (%)
Dry skin, TRAEs All grades (N = 16): 3 (18.8) n (%)
Dry skin, TRAEs Grade ≥3 (N = 16): 0 (0.0) n (%)
Dysgeusia, TEAEs All grades (N = 16): 6 (37.5) n (%)
Dysgeusia, TEAEs Grade ≥3 (N = 16): 0 (0.0) n (%)
Dysgeusia, TRAEs All grades (N = 16): 5 (31.3) n (%)
Dysgeusia, TRAEs Grade ≥3 (N = 16): 0 (0.0) n (%)
Epistaxis, TEAEs All grades (N = 16): 2 (12.5) n (%)
Epistaxis, TEAEs Grade ≥3 (N = 16): 0 (0.0) n (%)
Epistaxis, TRAEs All grades (N = 16): 1 (6.3) n (%)
Epistaxis, TRAEs Grade ≥3 (N = 16): 0 (0.0) n (%)
Headache, TEAEs All grades (N = 16): 2 (12.5) n (%)
Headache, TEAEs Grade ≥3 (N = 16): 1 (6.3) n (%)
Headache, TRAEs All grades (N = 16): 0 (0.0) n (%)
Headache, TRAEs Grade ≥3 (N = 16): 0 (0.0) n (%)
Hyperphosphatemia, TEAEs All grades (N = 16): 16 (100.0) n (%)
Hyperphosphatemia, TEAEs Grade ≥3 (N = 16): 0 (0.0) n (%)
Hyperphosphatemia, TRAEs All grades (N = 16): 16 (100.0) n (%)
Hyperphosphatemia, TRAEs Grade ≥3 (N = 16): 0 (0.0) n (%)
Hypoalbuminemia, TEAEs All grades (N = 16): 3 (18.8) n (%)
Hypoalbuminemia, TEAEs Grade ≥3 (N = 16): 1 (6.3) n (%)
Hypoalbuminemia, TRAEs All grades (N = 16): 0 (0.0) n (%)
Hypoalbuminemia, TRAEs Grade ≥3 (N = 16): 0 (0.0) n (%)
Insomnia, TEAEs All grades (N = 16): 2 (12.5) n (%)
Insomnia, TEAEs Grade ≥3 (N = 16): 0 (0.0) n (%)
Insomnia, TRAEs All grades (N = 16): 0 (0.0) n (%)
Insomnia, TRAEs Grade ≥3 (N = 16): 0 (0.0) n (%)
Lipase increased, TEAEs All grades (N = 16): 2 (12.5) n (%)
Lipase increased, TEAEs Grade ≥3 (N = 16): 2 (12.5) n (%)
Lipase increased, TRAEs All grades (N = 16): 1 (6.3) n (%)
Lipase increased, TRAEs Grade ≥3 (N = 16): 1 (6.3) n (%)
